IC50 data for ten molecules are collected here from patent US11084800B2 (Achillion Pharmaceuticals, Inc., priority 2017, dated 2021).

Some results are limits rather than exact numbers.

Sequence of Human Factor D (P00746 26-253): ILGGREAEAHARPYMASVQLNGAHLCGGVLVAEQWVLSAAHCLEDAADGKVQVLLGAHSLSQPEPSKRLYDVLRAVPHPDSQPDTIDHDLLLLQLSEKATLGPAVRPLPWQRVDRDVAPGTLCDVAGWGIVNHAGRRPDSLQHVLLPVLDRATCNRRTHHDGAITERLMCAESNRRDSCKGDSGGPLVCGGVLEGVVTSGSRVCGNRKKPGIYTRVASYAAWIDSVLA

The target in the first assay is Human Factor D (Homo sapiens (Human), UniProt P00746). As to the kind of experiment: Human Factor D Assay. It counts as biochemical. Particulars: Factor D inhibition, assay of Example 10; read-out: IC5 (Stars). Summed up:
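Serum-purified Factor D (80 nM final) preincubated 5 min at room temperature with compound in 50 mM Tris, 1 M NaCl, pH 7.5. Z-L-Lys-SBz and DTNB added at 100 μM each; A405 followed every 30 s for 30 min. IC50 from nonlinear regression of rates versus concentration.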
As for `Cc1ncc(-c2cc(C)c3c(c2)c(C#N)nn3CC(=O)N2[C@H](C(=O)Nc3nc(Br)ccc3C)C[C@@]3(C)C[C@@H]23)cn1` [Compound 407, (1R,3S,5R)-N-(6-bromo-3-methylpyridin-2-yl)-2-(2-(3-cyano-7-methyl-5-(2-methylpyrimidin-5-yl)-1H-indazol-1-yl)acetyl)-5-methyl-2-azabicyclo[3.1.0]hexane-3-carboxamide], the IC50 was less than 1000 nM.
As for `CC(=O)c1nn(CC(=O)N2[C@H](C(=O)Nc3nc(Br)ccc3CN(C)C)C[C@@]3(C)C[C@@H]23)c2c(Cl)cc(-c3cnc(C)nc3)cc12` [Compound 408, (1R,3S,5R)-2-(2-(3-acetyl-7-chloro-5-(2-methylpyrimidin-5-yl)-1H-indazol-1-yl)acetyl)-N-(6-bromo-3-((dimethylamino)methyl)pyridin-2-yl)-5-methyl-2-azabicyclo[3.1.0]hexane-3-carboxamide], the IC50 is less than 1000 nM.
`CC(=O)c1nn(CC(=O)N2[C@H](C(=O)Nc3nc(Br)ccc3C)C[C@@]3(Cc4nc(C)no4)C[C@@H]23)c2c(CF)cc(-c3cnc(C)nc3)cc12` [Compound 409, (1R,3S,5R)-2-(2-(3-acetyl-7-(fluoromethyl)-5-(2-methylpyrimidin-5-yl)-1H-indazol-1-yl)acetyl)-N-(6-bromo-3-methylpyridin-2-yl)-5-((3-methyl-1,2,4-oxadiazol-5-yl)methyl)-2-azabicyclo[3.1.0]hexane-3-carboxamide]: the IC50 is less than 1000 nM.
With `CC(=O)c1nn(CC(=O)N2C[C@@](F)(CF)C[C@H]2C(=O)Nc2nc(Br)ccc2C)c2c(C)nc(-c3cnc(C)nc3)cc12` [Compound 410, (2S,4R)-1-(2-(3-acetyl-7-methyl-5-(2-methylpyrimidin-5-yl)-1H-pyrazolo[3,4-c]pyridin-1-yl)acetyl)-N-(6-bromo-3-methylpyridin-2-yl)-4-fluoro-4-(fluoromethyl)pyrrolidine-2-carboxamide], the IC50 is less than 1000 nM.
The same measure, in the same setting: then `CC(=O)c1nn(CC(=O)N2C[C@H]3C[C@H]3[C@H]2C(=O)NCc2cccc(Cl)c2F)c2c(C)nc(-c3cnc(C)nc3)cc12` [Compound 411, (1R,2S,5S)-3-(2-(3-acetyl-7-methyl-5-(2-methylpyrimidin-5-yl)-1H-pyrazolo[3,4-c]pyridin-1-yl)acetyl)-N-(3-chloro-2-fluorobenzyl)-3-azabicyclo[3.1.0]hexane-2-carboxamide], with less than 1000 nM.
For `CC(=O)c1nn(CC(=O)N2C[C@H]3C[C@H]3[C@H]2C(=O)NCc2cccc(Cl)c2F)c2ccc(-c3cnc(C)nc3)cc12` [Compound 412, (1R,2S,5S)-3-(2-(3-acetyl-5-(2-methylpyrimidin-5-yl)-1H-indazol-1-yl)acetyl)-N-(3-chloro-2-fluorobenzyl)-3-azabicyclo[3.1.0]hexane-2-carboxamide], the IC50 is less than 1000 nM.
With `CC(=O)c1nn(CC(=O)N2C[C@H]3C[C@H]3[C@H]2C(=O)NCc2cccc(Cl)c2F)c2c(C)cc(-c3cnc(C)nc3)cc12` [Compound 413], the IC50 is less than 1000 nM.

The assay is the same for the next values; noted with them: Table 8; Factor D 80 nM, substrate Z-L-Lys-SBz; read-out: IC50.
For the molecule `COC(=O)CCCCCCCCCCCCCCCCC(=O)N[C@@H](CCC(=O)NCCOCCOCC(=O)NCCOCCOCC(=O)NCc1ncc(-c2cc3c(C(C)=O)nn(CC(=O)N4[C@H](C(=O)Nc5nc(Br)ccc5C)C[C@@]5(C)C[C@@H]45)c3cn2)cn1)C(=O)OC` [Compound 405], the IC50 was less than 1000 nM.
Consider `COC(=O)CCCCCCCCCCCCCCCCC(=O)N[C@@H](CCC(=O)NCCOCCOCC(=O)NCCOCCOCC(=O)NC[C@@]12C[C@@H](C(=O)Nc3nc(Br)ccc3C)N(C(=O)Cn3nc(C(C)=O)c4cc(-c5cnc(C)nc5)ncc43)[C@@H]1C2)C(=O)OC` [Compound 406], for which the IC50 was less than 1000 nM.
In the case of `CC(=O)c1nn(CC(=O)N2[C@H](C(=O)Nc3nc(Br)ccc3C)C[C@@]3(C)C[C@@H]23)c2cnc(-c3cnc(CNC(=O)COCCOCCNC(=O)COCCOCCNC(=O)CC[C@H](NC(=O)CCCCCCCCCCCCCCCCC(=O)O)C(=O)O)nc3)cc12` [Compound 414], the IC50 was less than 1000 nM.
